Laboratory results reported in patent US6777414B1, “Nitrogen-containing heterocyclic compounds and benamide compounds and drugs containing the same” (Meiji Seika Kaisha, Ltd., priority 1999, dated 2004).

Assays:
Hep G2 cells [1] = test: Triglyceride biosynthesis inhibitory activity (14C-acetic acid incorporation into triglyceride); assay type: cell-based; details: Homo sapiens, HepG2, test compound 1 μM
Procedure: Test 1: Triglyceride Biosynthesis Inhibitory Activity
The triglyceride biosynthesis inhibitory activity of compounds according to the present invention was examined using human hepatoma-derived cell line, Hep G2.
The test was carried out by partially modifying the method of Nagata et al. (Biochem. Pharmacol., 40, 843 (1990)) and the method of Furukawa et al. (J. Biol. Chem., 267, 22630 (1992)). Specifically, Hep G2 cells were cultivated in a Dulbecco modified Eagles's medium (DMEM) containing 10% fetal calf serum (FCS), 100 units/ml penicillin, and 100 μg/ml streptomycin on a 96-well plate. Thereafter, the medium was replaced by DMEM containing 1% bovine serum albumin. At the same time, the test compound was added to a final concentration of 1 μM, followed by cultivation, or cultivation was carried out without the addition of the test compound. Three hours after the replacement of the medium, ^14C-acetic acid was added to a final concentration of 1 mM, and cultivation was continued for additional 4 hours. After the cells were washed with a phosphate buffer (pH 7.5) containing 150 mM sodium chloride, lipids within the cells were extracted with n-butanol. After the extraction, the extract was evaporated to dryness under a nitrogen stream. The solid obtained by the evaporation to dryness was dissolved in a minor amount of chloroform. The solution was developed by thin layer chromatography (development solvent: petroleum ether/diethyl ether/acetic acid=90/15/3) to separate a ^14C-triglyceride fraction, and the amount of ^14C-triglyceride produced was then determined with a liquid scintillation counter (Beckman, LS-6500).
The inhibition (%) of biosynthesis of triglyceride was calculated by the following equation.
Inhibition of biosynthesis of triglyceride (%)={1−(amount of ^14C-triglyceride produced in the presence of test compound)/(amount of ^14C-triglyceride produced in the absence of test compound)}×100

Hep G2 cells [2] = test: Apolipoprotein B secretion inhibitory activity (sandwich ELISA of culture supernatant); assay type: cell-based; details: Homo sapiens, HepG2, test compound 1 μM
Procedure: Test 2: Apolipoprotein B Secretion Inhibitory Activity
The apolipoprotein B secretion inhibitory activity of compounds according to the present invention was examined using human hepatoma-derived cell line, Hep G2.
The test was carried out by partially modifying the method of Nagata et al. (Biochem. Pharmacol., 40, 843 (1990)) and the method of Furukawa et al. (J. Biol. Chem., 267, 22630 (1992)). Specifically, Hep G2 cells were cultivated in a Dulbecco modified Eagles's medium (DMEM) containing 10% fetal calf serum (FCS), 100 units/ml penicillin, and 100 μg/ml streptomycin on a 96-well plate. Thereafter, the medium was replaced by DMEM containing 1% bovine serum albumin. At the same time, the test compound was added to a final concentration of 1 μM, followed by cultivation, or cultivation was carried out without the addition of the test compound. Three hours after the replacement of the medium, acetic acid was added to a final concentration of 1 mM, and cultivation was continued for additional 4 hours. The amount of apolipoprotein B secreted in the supernatant of the culture thus obtained was determined by the sandwich ELISA method. Goat anti-human apolipoprotein B polyclonal antibody (CHEMICON) was used as the primary antibody, and mouse anti-human apolipoprotein B monoclonal antibody peroxydase conjugate (BIOSYS) was used as the secondary antibody.
The inhibition (%) of secretion of apolipoprotein B was calculated by the following equation.
Inhibition (%) of secretion of apolipoprotein B={1−(amount of apolipoprotein B secreted in the presence of test compound)/(amount of apolipoprotein B secreted in the absence of test compound)}×100

wistar rats (male) = test: Acute toxicity test in rats; assay type: in vivo; details: orally administered 200 mg/kg, observed for 8 days
Procedure: (§1) Test 3: Acute Toxicity Test
(§2) For the compound prepared in Example 104, an acute toxicity test was carried out using mice and rats according to a conventional method.

ddY mice (male) = test: Acute toxicity test in mice; assay type: in vivo; details: orally administered 200 mg/kg, observed for 8 days
Procedure: as §1, §2

Structure (SMILES) | inhibition at 1 µM (Hep G2 cells [1]) [%] | inhibition at 1 µM (Hep G2 cells [2]) [%] | Change in general conditions, such as weight, in acute toxicity test (wistar rats (male)) | Survival in acute toxicity test (wistar rats (male)) | Change in general conditions, such as weight, in acute toxicity test (ddY mice (male)) | Survival in acute toxicity test (ddY mice (male))
CC(C)N(C(=O)c1cccc(N2CCN(CCC(c3ccccc3)c3ccccc3)CC2)c1)C(C)C [Example 5, N,N-Diisopropyl-3-[4-(3,3-diphenyl-1-propyl)piperazin-1-yl]benzamide] | 8 | 92 |  |  |  | 
O=C1c2cc(N3CCN(CCCCC4(C(=O)NCC(F)(F)F)c5ccccc5-c5ccccc54)CC3)ccc2CCN1CC1CCCCO1 (centres unmarked) [Example 99, 2-(Tetrahydropyran-2-yl)methyl-7-[4-[4-[9-(2,2,2-trifluoroethylcarbamoyl)-9H-fluoren-9-yl]butyl]piperazin-1-yl]-3,4-dihydro-2H-isoquinolin-1-one] | 11 | ≥ 80 |  |  |  | 
O=C1c2cc(N3CCN(CCC(c4ccccc4)c4ccccc4)CC3)ncc2CCN1Cc1ccccc1 [Example 104, 2-Benzyl-7-[4-(3,3-diphenyl-1-propyl)piperazin-1-yl]-3,4-dihydro-2H-2,6-naphthyridin-1-one] | 83 | 84 | any change in general conditions, such as a change in weight, did not occur | all the animals survived | any change in general conditions, such as a change in weight, did not occur | all the animals survived
C=CCN(CC(F)(F)F)C(=O)C1(CCCCN2CCN(c3ccc4c(c3)C(=O)N(Cc3ccccc3)CC4)CC2)c2ccccc2-c2ccccc21 [Example 102, 7-[4-[4-[9-[Allyl-(2,2,2-trifluoroethyl)carbamoyl]-9H-fluoren-9-yl]butyl]piperazin-1-yl]-2-benzyl-3,4-dihydro-2H-isoquinolin-1-one] | 89 | 80 |  |  |  | 
O=c1c2cc(N3CCN(CCC(c4ccccc4)c4ccccc4)CC3)ccc2cnn1Cc1ccccc1 [Example 149, 2-Benzyl-7-[4-(3,3-diphenylpropyl)piperazin-1-yl]-2H-phthalazin-1-one] | 74 | 70 |  |  |  | 
